Results as given in patent US6008240A, “2-(1H-4(5)-imidazoyl) cyclopropyl derivatives” (Gliatech, Inc., priority 1997, dated 1999).
Where a name gives a salt, the structure may show the parent alone.

biological target: T1, Histamine H3 Receptor (Rattus norvegicus, UniProt Q9QYN8); test: In Vitro Histamine H3 Receptor Binding Analysis ([3H]-Nα-methylhistamine, rat cortical membranes); conditions: not given
T1 construct: from tissue; host or cells: rat cerebral cortex membranes
Experimental: Histamine H3 receptor affinity was determined in rat cortical membranes using the H3 selective agonist ligand, [^3 H]-N^α -methylhistamine (78.9 Ci/mmole, DuPont NEN Research Products, Boston, Mass.) according to the method of West et al., (1990) Mol. Pharmacol. 38: 610-613 with modifications. Briefly, animals were sacrificed by decapitation and the cerebral cortex was rapidly removed. Rat cortices were mechanically homogenized with an Omni 1000 motor driven homogenizer in 10 volumes (wt/vol) of Krebs-Ringers Hepes buffer (pH 7.4) containing the following protease inhibitors; EDTA (10 mmol), PMSF (0.1 mM), chymostatin (0.2 mg/50 mL) and leupeptin (0.2 mg/50 mL). The homogenate was centrifuged in a Sorvall at ~40,000 x g for 30 min. The pellet was resuspended by mechanical homogenization in 25 mL water and lysed on ice for 30 min. The homogenate was recentrifuged and the membrane lysis was repeated. The membranes were recentrifuged and the final pellet was resuspended in 14 volumes of water to give approximately 200 μg protein/100 μl final concentration. The suspension was stored at -80° C. prior to use. Protein concentrations were determined by Coomassie Plus Protein Assay (Pierce, Rockford, Ill.).
Nonspecific binding (NSB) was accounted for by the inclusion of thioperamide (10 μM). Samples were incubated for 40 minutes at 25° C. The samples were filtered through glass fiber strips, pre-washed with 0.3% polyethyleneimine, using a Brandell cell harvester. The filters were rapidly washed three times with 4 ml of 25 mM Tris buffer containing 145 mM NaCl (pH 7.4, 4° C.). Filters were transferred to polyethylene minivials and counted in 3.5 ml of scintillation fluid (Ecolume, ICN Biomedicals, Inc.). Using this procedure, the non-specific binding was less than 10% of the total binding and the binding to the glass fiber filters was negligible. Saturation and competition experiments were analyzed with the ReceptorFit saturation and competition curve fitting programs (Lundon Software, Inc., Cleveland, Ohio).

T1 sequence (Q9QYN8 whole entry): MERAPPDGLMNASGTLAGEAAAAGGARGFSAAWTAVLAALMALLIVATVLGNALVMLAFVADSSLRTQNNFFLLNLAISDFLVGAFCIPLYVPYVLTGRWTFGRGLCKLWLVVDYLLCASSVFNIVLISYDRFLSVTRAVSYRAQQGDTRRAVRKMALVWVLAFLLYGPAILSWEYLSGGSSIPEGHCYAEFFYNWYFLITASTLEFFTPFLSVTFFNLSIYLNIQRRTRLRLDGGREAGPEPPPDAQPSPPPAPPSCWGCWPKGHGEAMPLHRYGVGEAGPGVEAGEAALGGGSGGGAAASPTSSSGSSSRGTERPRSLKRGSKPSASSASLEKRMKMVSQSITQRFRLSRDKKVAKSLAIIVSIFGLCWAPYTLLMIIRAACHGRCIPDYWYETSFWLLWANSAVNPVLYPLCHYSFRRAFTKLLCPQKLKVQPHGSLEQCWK

Row | Structure (SMILES) | Ki
1 | C[C@@H](NC(=O)[C@@H]1C[C@H]1c1cnc[nH]1)C1CCCCC1 (mixture of isomers) [Example 6, N-[(R)-1-cyclohexylethyl]-3-(1H-imidazol-4-yl)-trans-(2R,3R)-cyclopropanamide and N-[(R)-1-cyclohexylethyl]-3-(1H-imidazol-4-yl)-trans-(2S,3S)-cyclopropanamide hydrochloride] | 0.07 ± 0.0086 µM
2 | O=C(CCCC1CCCCC1)[C@@H]1C[C@H]1c1c[nH]cn1 (racemic) [Example 10, (±)-trans-4-cyclohexyl-1-(2-imidazol-4-ylcyclopropyl) butan-1-one] | 0.097 ± 0.021 µM
3 | C(#C[C@@H]1C[C@H]1c1c[nH]cn1)CCC1CCCC1 (racemic) [Example 54, (±)-trans-4-(2-(4-Cyclopentylbut-1-ynyl)cyclopropyl)imidazole] | 0.00143 ± 0.00033 µM
4 | C(#C[C@@H]1C[C@H]1c1c[nH]cn1)CCC1CCCCC1 (racemic) [Example 55, (±)trans-4-(2-(4-cyclohexylbut-1-ynyl)cyclopropyl)imidazole] | 0.0018 ± 0.00064 µM
5 | O=C(NCc1ccccc1)[C@@H]1C[C@H]1c1c[nH]cn1 (relative stereo) [Example 1, N-(1-benzyl)-3-[(1H-imidazol-4-yl)]-(2R,3R)-trans-cyclopropanamide and N-(1-benzyl)-3-[(1H-imidazol-4-yl)]-(2S,3S)-trans-cyclopropanamide hydrochloride] | 0.053 ± 0.002 µM
6 | O=C(NCC1CCCCC1)[C@@H]1C[C@H]1c1c[nH]cn1 (relative stereo) [Example 2, (±)-trans-N-(cyclohexylmethyl)(2-imidazol-4-ylcyclopropyl)formamide] | 0.037 ± 0.004 µM
7 | C(=C/[C@@H]1C[C@H]1c1c[nH]cn1)/CCC1CCCCC1 (relative stereo) [Example 16, (±)-trans4-(2-(4-Cyclohexylbut-cis-1-enyl)cyclopropyl)imidazole] | 0.0122 ± 0.001 µM
8 | O=C(N[C@@H]1C[C@H]1c1c[nH]cn1)OCc1ccccc1 (relative stereo) [Example 26, (±)-trans-N-(2-imidazol-4-ylcyclopropyl)(phenylmethoxy)formamide] | 0.0058 ± 0.0004 µM
9 | O=C(NCCCC1CCCCC1)[C@@H]1C[C@H]1c1c[nH]cn1 (relative stereo) [Example 29, N-[3-cyclohexylpropyl]-3(R)-[1H-imidazol-4-yl]-2(R)-cyclopropanamide and N-[3-cyclohexylpropyl]-3(S)-[1H-imidazol-4-yl]-2(S)-cyclopropanamide] | 0.036 ± 0.008 µM
10 | CC(C)CCC#C[C@@H]1C[C@H]1c1cnc[nH]1 (relative stereo) [Example 40, (±)-4-(2-(5-Methylhex-1-ynyl)cyclopropyl)imidazole] | 0.0065 ± 0.0015 µM
11 | C(#C[C@@H]1C[C@H]1c1cnc[nH]1)CCCCc1ccccc1 (relative stereo) [Example 41, (±)-4-(2-(6-Phenylhex-1-ynyl)cyclopropyl)imidazole] | 0.016 ± 0.0006 µM
12 | O=C(N[C@@H]1C[C@H]1c1c[nH]cn1)OCCC1CCCCC1 (relative stereo) [Example 46, (±)-trans-(Cyclohexylethoxy)-N-(2-imidazol-4-cyclopropyl) formamide] | 0.029 ± 0.0012 µM
13 | O=C(N[C@@H]1C[C@H]1c1cnc[nH]1)OCCC1CCCC1 (relative stereo) [Example 49, (±)-trans-(2-Cyclopentylethoxy)-N-(2-imidazol-4-ylcyclopropyl) formamide] | 0.013 ± 0.0015 µM
14 | O=C(N[C@@H]1C[C@H]1c1cnc[nH]1)OCc1ccccc1Br (relative stereo) [Example 50, (±)-trans-(2-Bromophenyl)methoxy)-N-(2-imidazol-4-ylcyclopropyl) formamide] | 0.008 ± 0.00043 µM
15 | O=C(N[C@@H]1C[C@H]1c1cnc[nH]1)OCc1cccc(Br)c1 (relative stereo) [Example 51, (±)-trans-((3-Bromophenyl)methoxy)-N-(2-imidazol-4-ylcyclopropyl) formamide] | 0.0099 ± 0.00035 µM
16 | COC(=O)/C=C\[C@@H]1C[C@H]1c1cnc[nH]1 (relative stereo) [Example 53, (±) trans-Methyl-3-(2-imidazol-4-ylcyclopropyl)prop-2-enoate] | 0.0216 ± 0.0036 µM

same assay, conditions: rat cortical membranes; 0.8-1.2 nM [3H]-Nα-methylhistamine; 40 minutes at 25° C.; pH 7.4; read-out: H3 Receptor Ki

Row | Structure (SMILES) | Ki
17 | C[C@H](NC(=O)[C@@H]1C[C@H]1c1cnc[nH]1)C1CCCCC1 (mixture of isomers) [Example 7, N-[(S)-1-cyclohexylethyl]-3-(1H-imidazol-4-yl)- trans-(2R,3R)-cyclopropanamide and N-[(S)-1-cyclohexylethyl]-3-(1H-imidazol-4-yl)-trans-(2S,3S)-cyclopropanamide hydrochloride] | 0.146 ± 0.013 µM
18 | CN(CC1CCCCC1)C(=O)[C@@H]1C[C@H]1c1c[nH]cn1 (racemic) [Example 11, (±)-trans-N-(cyclohexylmethyl)(2-imidazol-4-ylcyclopropyl)-N-methylformamide] | 0.134 ± 0.001 µM
19 | c1nc([C@@H]2C[C@H]2COCCCC2CCCCC2)c[nH]1 (racemic) [Example 18, (±)-trans-(3-Cyclohexylpropoxy)(2-imidazol-4-ylcyclopropyl)methane] | 0.24 ± 0.006 µM
20 | OC(CCCC1CCCCC1)[C@@H]1C[C@H]1c1c[nH]cn1 (mixture of isomers) [Example 19, (±)-trans4-Cyclohexyl-1-(2-imidazol-4-ylcyclopropyl)butan-1-ol] | 0.16 ± 0.009 µM
21 | N[C@H](Cc1ccc(Br)cc1)C(=O)N[C@@H]1C[C@H]1c1c[nH]cn1 (racemic) [Example 43, (1R,2R)-trans-(±)-2-Amino-3-(4-bromophenyl)-N-(2-imidazol-4-ylcyclopropyl)propanamide] | 0.0137 ± 0.0015 µM
22 | CC1CCCCN1CCCNC(=O)[C@@H]1C[C@H]1c1c[nH]cn1 (relative stereo) [Example 3, (±)-trans-(2-imidazol-4-ylcyclopropyl)-N-(3-((±)-2-methylpiperidyl)propyl)formamide] | 0.659 ± 0.052 µM
23 | O=C(Nc1ccccc1)[C@@H]1C[C@H]1c1c[nH]cn1 (relative stereo) [Example 5, N-(phenyl)-3-(1H-imidazol-4-yl)-trans-(2R,3R)-cyclopropanamide and N-(phenyl)-3-(1H-imidazol-4-yl)-trans-(2S,3S)-cyclopropanamide hydrochloride] | 0.267 ± 0.026 µM
24 | O=C(NCC12CC3CC(CC(C3)C1)C2)[C@@H]1C[C@H]1c1c[nH]cn1 (relative stereo) [Example 8, (±)-trans-N-(adamantanylmethyl) (2-imidazol-4-ylcyclopropyl)formamide] | 0.055 ± 0.006 µM
25 | O=C(NCCc1ccccc1)[C@@H]1C[C@H]1c1c[nH]cn1 (relative stereo) [Example 9, (±)-trans-(2-imidazole-4-ylcyclopropyl)-N-(2-phenylethyl)formamide] | 0.163 ± 0.019 µM
26 | O=C(NCC1CC1)[C@@H]1C[C@H]1c1c[nH]cn1 (relative stereo) [Example 32, (±)-trans-N-(Cyclopropylmethyl)(2-imidazol-4-ylcyclopropyl)formamide] | 0.876 ± 0.158 µM
27 | O=C(NCCCc1ccccc1)[C@@H]1C[C@H]1c1c[nH]cn1 (relative stereo) [Example 33, (±)-trans-(2-imidazol-4-ylcyclopropyl)-N-(3-phenylpropyl) formamide] | 0.197 ± 0.023 µM
28 | O=C(NCCc1c[nH]cn1)[C@@H]1C[C@H]1c1c[nH]cn1 (relative stereo) [Example 34, (±)-trans-(2-imidazol-4-ylcyclopropyl)-N-(2-imidazol-4-ylethyl) formamide] | 0.227 ± 0.026 µM
29 | O=C(NCCc1c[nH]c2ccccc12)[C@@H]1C[C@H]1c1c[nH]cn1 (relative stereo) [Example 35, (±)-trans-(2-imidazol-4-ylcyclopropyl)-N-(2-indol-3-ylethyl) formamide] | 0.441 ± 0.073 µM
30 | O=C(NCC(O)CC1CCCCC1)[C@@H]1C[C@H]1c1c[nH]cn1 (relative stereo) [Example 36, (±)-trans-N-(3-Cyclohexyl-2-(±)-hydroxypropyl)(2-imidazol-4-ylcyclopropyl)formamide] | 0.145 µM
31 | O=C(NCCCCC1CCCCC1)[C@@H]1C[C@H]1c1c[nH]cn1 (relative stereo) [Example 37, (±)-trans-N-(4-Cyclohexylbutyl)(2-imidazol-4-ylcyclopropyl)formamide] | 0.068 ± 0.0091 µM
32 | CC(C)(C)CCC#C[C@@H]1C[C@H]1c1c[nH]cn1 (relative stereo) [Example 38, (±)-4-(2-(5,5-Dimethylhex-1-ynyl)cyclopropyl)imidazole] | 0.00033 ± 0.0001 µM
33 | O=C(N[C@@H]1C[C@H]1c1cnc[nH]1)OCCCc1ccccc1 (relative stereo) [Example 47, (±)-trans-N-(2-imidazol-4-ylcyclopropyl)(3-phenylpropoxy)formamide] | 0.041 ± 0.0034 µM
34 | O=C(N[C@@H]1C[C@H]1c1cnc[nH]1)OCCCC1CCCCC1 (relative stereo) [Example 48, (±)-trans-(3-Cyclohexylpropoxy)-N-(2-imidazol-4-ylcyclopropyl) formamide] | 0.055 ± 0.011 µM

same assay, conditions: read-out: H3 Receptor Ki; rat cortical membranes; 0.8-1.2 nM [3H]-Nα-methylhistamine; 40 minutes at 25° C.; pH 7.4

Row | Structure (SMILES) | Ki
35 | O=C(NCC1CCCCC1)[C@H]1C[C@@H]1c1c[nH]cn1 [Example 2a] | 0.023 ± 0.001 µM
